Measured values as given in patent US20060104978A1, “Methods and compositions for PDGF-C activation and inhibition” (LUDWIG INSTITUTE FOR CANCER RESEARCH, priority 2003, published 2006).

Columns and labels:
[1] = test system: secreted protease(s) present in the conditioned media from AG1523 cells; test: In vitro cleavage of recombinant latent PDGF-CC by AG1523 conditioned medium, protease inhibitor profile; format: biochemical, human; details: inhibitor preincubated 30 min with AG1523 medium, then recombinant PDGF-CC 37° C. overnight; AEBSF 1 mM, leupeptin 100 μM, aprotinin 100 μM; immunoblot
Description: In an in vitro assay, the properties of the enzyme(s) involved in cleavage and activation of PDGF-CC were studied by mixing serum-free conditioned media from AG1523 cells with His6-tagged recombinant full-length PDGF-CC.
The class of enzyme(s) responsible for cleavage and activation of latent PDGF-CC was established by generating an enzyme inhibitor profile of the enzymatic activity (FIG. 1E). Eight different protease inhibitors (see FIG. 1F) were separately preincubated with conditioned media from AG1523 cells, and then incubated with His6-tagged recombinant full-length PDGF-CC.
(§1) All protease inhibitors were purchased from Sigma and the concentrations used were as follows: AEBSF 1 mM, bestatin 100 μM, leupeptin 100 μM, pepstatin A 10 μM, E64 100 μM, aprotinin 100 μM (˜3 TIU), EDTA 50 mM, and phosphoramidon 100 μM. The protease inhibitors were preincubated with conditioned AG1523 medium at room temperature for 30 min, and then incubated with recombinant PDGF-CC (ratio 10:2) at 37° C. overnight. Recombinant PDGF-CC species were analyzed by immunoblotting as above. To determine whether tPA is the major proteolytic enzyme responsible for the PDGF-CC processing in AG1523 conditioned medium, AG1523 cells were cultured in serum-free medium, with or without the addition of a synthetic tPA inhibitor tPA-STOP™ (3.5-35 μM, #544, American Diagnostica Inc.) or 100 μM aprotinin as a positive control. The conditioned serum-free medium was collected, and proteins were precipitated before SDS-PAGE and immunoblotting using antibodies against PDGF-C (see above).

tPA [2] = test: Processing of endogenous PDGF-CC by growing AG1523 cells with tPA inhibitors in serum-free medium; format: cell-based, human; details: tPA-STOP 3.5-35 μM, aprotinin 100 μM in serum-free medium of AG1523 cells; immunoblot
Description: as §1

tPA [3] = test: Ni-NTA pull-down of purified tPA by His6-tagged recombinant proteins; format: binding, human; details: Ni-NTA beads coated with His6-tagged protein, 1 μg purified tPA, 2 hours room temperature, eluted with imidazole
Description: The possibility of a direct protein-protein interaction between tPA and latent PDGF-CC was explored by developing a pull-down assay. Ni-NTA beads were allowed to bind recombinant His6-tagged latent PDGF-CC or PDGF-DD, and purified tPA was added and incubated. Following extensive washings, bound proteins were subsequently eluted with an imidazole-containing buffer, and the eluates were analyzed by immunoblotting using specific antibodies.
To determine a direct protein-protein interaction between tPA and PDGF-CC, His6-tagged recombinant protein species were bound to Ni-NTA-agarose (Qiagen) and then incubated with 1 μg of purified tPA for 2 hours at room temperature. Uncoated and PDGF-DD coated Ni-NTA beads were used as controls. The beads were washed thoroughly, and His6-tagged proteins were specifically eluted with 400 mM imidazole. Eluted proteins were analyzed by SDS-PAGE under reducing conditions and immunoblotted with antibodies against human tPA (see above). The membranes were subsequently stripped and reprobed with specific antibodies.
Target sequence in this assay (P00750 36-562): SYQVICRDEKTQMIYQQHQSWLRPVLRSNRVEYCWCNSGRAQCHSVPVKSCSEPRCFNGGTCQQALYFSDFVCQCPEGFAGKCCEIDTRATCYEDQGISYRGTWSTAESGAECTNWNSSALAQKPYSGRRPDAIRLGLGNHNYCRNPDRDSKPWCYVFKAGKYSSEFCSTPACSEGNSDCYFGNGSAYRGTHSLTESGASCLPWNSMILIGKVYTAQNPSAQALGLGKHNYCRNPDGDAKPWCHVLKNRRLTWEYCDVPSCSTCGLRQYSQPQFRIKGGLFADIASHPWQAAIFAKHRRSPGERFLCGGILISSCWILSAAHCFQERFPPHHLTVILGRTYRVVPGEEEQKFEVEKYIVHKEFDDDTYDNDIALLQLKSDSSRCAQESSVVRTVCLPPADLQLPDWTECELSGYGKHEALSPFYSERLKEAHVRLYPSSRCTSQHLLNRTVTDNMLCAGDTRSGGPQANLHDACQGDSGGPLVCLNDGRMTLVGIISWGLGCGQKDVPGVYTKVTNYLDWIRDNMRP

Molecule	inhibition of proteolytic cleavage of latent PDGF-CC [1]	inhibition of processing of endogenous full-length PDGF-CC (tPA [2])	binding of tPA in pull-down (tPA [3])
aprotinin	inhibited the proteolytic cleavage of latent PDGF-CC	efficiently inhibited processing of latent PDGF-CC	
CC(=O)N[C@@H](CC(C)C)C(=O)N[C@@H](CC(C)C)C(=O)N[C@H](C=O)CCCNC(=N)N [leupeptin]	inhibited the proteolytic cleavage of latent PDGF-CC		
NCCc1ccc(S(=O)(=O)F)cc1 [AEBSF]	inhibited the proteolytic cleavage of latent PDGF-CC		
Cl.Cl.N=C(N)c1ccc(C=C2CCCCC(=Cc3ccc(C(=N)N)cc3)C2=O)cc1 [tPA-STOP™]		in a dose-dependent way, prevented processing of full-length PDGF-CC	
PDGF-DD: recombinant His6-tagged latent full-length PDGF-DD			failed to do so
